US9394282B2, “Pyrazole carboxamides as Janus kinase inhibitors” (Merck Sharp & Dohme Corp., priority 2011, dated 2016)

Legend:
JAK2 = JAK2 (Homo sapiens (Human), UniProt O60674); test: Jak biochemical HTRF assay, JAK2; conditions: recombinant purified GST-tagged catalytic domain, HTRF format
Source text: (§1) Jak Biochemical HTRF Assay Protocol
(§2) Subsequent reagent additions employed an Agilent Bravo.

JAK1 = JAK1 (Homo sapiens (Human), UniProt P23458); test: Jak biochemical HTRF assay, JAK1; conditions: recombinant purified GST-tagged catalytic domain; HTRF format; [ATP] 31.8 μM
Source text: as §1, §2

Sequence of JAK2 (O60674 849-1124): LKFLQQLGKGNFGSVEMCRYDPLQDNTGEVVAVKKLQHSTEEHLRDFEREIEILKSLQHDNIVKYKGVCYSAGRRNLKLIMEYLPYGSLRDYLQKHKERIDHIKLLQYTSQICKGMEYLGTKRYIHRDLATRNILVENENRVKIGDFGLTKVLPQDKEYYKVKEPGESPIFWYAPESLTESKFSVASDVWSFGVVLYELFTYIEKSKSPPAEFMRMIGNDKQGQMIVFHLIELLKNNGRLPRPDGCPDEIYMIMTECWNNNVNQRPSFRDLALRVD
Sequence of JAK1 (P23458 875-1153): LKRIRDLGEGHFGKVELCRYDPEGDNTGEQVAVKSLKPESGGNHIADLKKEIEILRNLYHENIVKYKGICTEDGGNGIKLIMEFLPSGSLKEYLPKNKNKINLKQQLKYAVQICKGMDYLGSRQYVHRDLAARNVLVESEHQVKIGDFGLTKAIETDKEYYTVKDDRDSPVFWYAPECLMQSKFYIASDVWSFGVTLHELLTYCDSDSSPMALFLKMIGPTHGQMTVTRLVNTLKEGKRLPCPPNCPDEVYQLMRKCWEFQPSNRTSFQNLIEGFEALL

SMILES | IC50 (JAK2; [ATP] 8.5 μM) | also measured
N#C[C@@H]1CS(=O)(=O)C[C@H]1n1cc(C(N)=O)c(Nc2ccc(F)cc2)n1 (single isomer, unassigned) [Example 12-2, 1-((3S,4R or 3R,4S)-4-Cyano-1,1-dioxidotetrahydrothiophen-3-yl)-3-((4-fluorophenyl)amino)-1H-pyrazole-4-carboxamide] |  | IC50 (JAK2; [ATP] […]): 16 nM
COCCOC(=O)N1CC[C@@H](C#N)C(n2cc(C(N)=O)c(Nc3ccc(F)cc3)n2)C1 (mixture of isomers) [Example 5-83, 2-methoxyethyl (3S,4R and 3R,4S)-3-{4-carbamoyl-3-[(4-fluorophenyl)amino]-1H-pyrazol-1-yl}-4-cyanopiperidine-1-carboxylate] | 120 nM | 
CC1(COC(=O)N2CC[C@@H](C#N)C(n3cc(C(N)=O)c(Nc4ccc(F)cc4)n3)C2)COC1 (mixture of isomers) [Example 5-90, (3-methyloxetan-3-yl)methyl (3S,4R and 3R,4S)-3-{4-carbamoyl-3-[(4-fluorophenyl)amino]-1H-pyrazol-1-yl}-4-cyanopiperidine-1-carboxylate] | 96 nM | 
CC(C)(C#N)COC(=O)N1CC[C@@H](C#N)C(n2cc(C(N)=O)c(Nc3ccc(F)cc3)n2)C1 (mixture of isomers) [Example 5-69, 2-Cyano-2-methylpropyl (3S,4R and 3R,4S)-3-{4-carbamoyl-3-[(4-fluorophenyl)amino]-1H-pyrazol-1-yl}-4-cyanopiperidine-1-carboxylate] | 41 nM | 
N#C[C@@H]1CN(C(=O)OCc2ccccc2)CC[C@@H]1n1cc(C(N)=O)c(Nc2ccc(F)cc2)n1 (racemic) [Example 5-52, benzyl (3R,4S and 3S,4R)-4-{4-carbamoyl-3-[(4-fluorophenyl)amino]-1H-pyrazol-1-yl}-3-cyanopiperidine-1-carboxylate] | > 1500 nM | 
N#C[C@@H]1CS(=O)(=O)C[C@H]1n1cc(C(N)=O)c(Nc2ccc(F)cc2)n1 (single isomer, unassigned) [Example 12-1, 1-((3S,4R or 3R,4S)-4-Cyano-1,1-dioxidotetrahydrothiophen-3-yl)-3-((4-fluorophenyl)amino)-1H-pyrazole-4-carboxamide] |  | IC50 (JAK2; [ATP] […]): > 1500 nM
CC1(COC(=O)N2CC[C@@H](n3cc(C(N)=O)c(Nc4ccc(F)cc4)n3)[C@H](C#N)C2)COC1 (racemic) [Example 5-33, (3-methyloxetan-3-yl)methyl (3R,4R and 3S,4S)-4-{4-carbamoyl-3-[(4-fluorophenyl)amino]-1H-pyrazol-1-yl}-3-cyanopiperidine-1-carboxylate] | 413 nM | 
N#C[C@@H]1CN(C(=O)OC2CCCCC2)CC[C@H]1n1cc(C(N)=O)c(Nc2ccc(F)cc2)n1 (mixture of isomers) [Example 5-17, cyclohexyl (3R,4R and 3S,4S)-4-{4-carbamoyl-3-[(4-fluorophenyl)amino]-1H-pyrazol-1-yl}-3-cyanopiperidine-1-carboxylate] |  | IC50 (JAK2; [ATP] […]): 1230 nM
CC(C)(C)OC(=O)N1CCC(n2cc(C(N)=O)c(Nc3ccc(F)cc3)n2)[C@@H](C#N)C1 (mixture of isomers) [Example 2-3, (3S,4S and 3R,4R)-tert-butyl 4-(4-carbamoyl-3-((4-fluorophenyl)amino)-1H-pyrazol-1-yl)-3-cyanopiperidine-1-carboxylate] | 367 nM | 
CC1(COC(=O)N2CC[C@H](n3cc(C(N)=O)c(Nc4ccc(F)cc4)n3)[C@H](C#N)C2)COC1 (racemic) [Example 5-45, (3-methyloxetan-3-yl)methyl (3R,4S and 3S,4R)-4-{4-carbamoyl-3-[(4-fluorophenyl)amino]-1H-pyrazol-1-yl}-3-cyanopiperidine-1-carboxylate] | > 1500 nM | 
CC(C)COC(=O)N1CC[C@@H](n2cc(C(N)=O)c(Nc3ccc(F)cc3)n2)[C@H](C#N)C1 (racemic) [Example 5-10, 2-methylpropyl (3R,4R and 3S,4S)-4-{4-carbamoyl-3-[(4-fluorophenyl)amino]-1H-pyrazol-1-yl}-3-cyanopiperidine-1-carboxylate] | 755 nM | 
CN1CCN(CCOC(=O)N2CC[C@@H](n3cc(C(N)=O)c(Nc4ccc(F)cc4)n3)[C@H](C#N)C2)CC1 (racemic) [Example 5-24, 2-(4-methylpiperazin-1-yl)ethyl (3R,4R and 3S,4S)-4-{4-carbamoyl-3-[(4-fluorophenyl)amino]-1H-pyrazol-1-yl}-3-cyanopiperidine-1-carboxylate] | 1070 nM | 
C#CCCOC(=O)N1CC[C@H](n2cc(C(N)=O)c(Nc3ccc(F)cc3)n2)[C@H](C#N)C1 (racemic) [Example 5-40, but-3-yn-1-yl (3R,4S and 3S,4R)-4-{4-carbamoyl-3-[(4-fluorophenyl)amino]-1H-pyrazol-1-yl}-3-cyanopiperidine-1-carboxylate] | 1390 nM | 
Cn1nccc1CN1CC[C@@H](n2cc(C(N)=O)c(Nc3ccc(F)cc3)n2)[C@H](C#N)C1 (mixture of isomers) [Example 6-32, 1-{(3R,4R and 3S,4S)-3-cyano-1-[(1-methyl-1H-pyrazol-5-yl)methyl]piperidin 4-yl}-3-[(4-fluorophenyl)amino]-1H-pyrazole-4-carboxamide] |  | IC50 (JAK2; [ATP] […]): 35 nM
CC(C)COC(=O)N1CC[C@H](n2cc(C(N)=O)c(Nc3ccc(F)cc3)n2)[C@H](C#N)C1 (racemic) [Example 5-56, 2-methylpropyl (3R,4S and 3S,4R)-4-{4-carbamoyl-3-[(4-fluorophenyl)amino]-1H-pyrazol-1-yl}-3-cyanopiperidine-1-carboxylate] | > 1500 nM | 
N#C[C@@H]1CN(C(=O)OC2CCOCC2)CC[C@@H]1n1cc(C(N)=O)c(Nc2ccc(F)cc2)n1 (racemic) [Example 5-60, tetrahydro-2H-pyran-4-yl (3R,4S and 3S,4R)-4-{4-carbamoyl-3-[(4-fluorophenyl)amino]-1H-pyrazol-1-yl}-3-cyanopiperidine-1-carboxylate] |  | IC50 (JAK1): 358 nM
COC(C)(C)c1ccc(Nc2nn([C@@H]3COCC[C@H]3C#N)cc2C(N)=O)cc1 (single isomer, unassigned) [Example 9-25, 1-[(3S,4R or 3R,4R)-4-cyanotetrahydro-2H-pyran-3-yl]-3-{[4-(1-methoxy-1-methylethyl)phenyl]amino}-1H-pyrazole-4-carboxamide] |  | IC50 (JAK1): 0.1 nM
N#C[C@@H]1CN(C(=O)OCC(F)(F)F)CC[C@@H]1n1cc(C(N)=O)c(Nc2ccc(F)cc2)n1 (racemic) [Example 5-66, 2,2,2-trifluoroethyl (3R,4S and 3S,4R)-4-{4-carbamoyl-3-[(4-fluorophenyl)amino]-1H-pyrazol-1-yl}-3-cyanopiperidine-1-carboxylate] |  | IC50 (JAK1): 84 nM

More lines, main results first:

IC50 (JAK2; [ATP] 8.5 μM) | SMILES | also measured
3 nM | N#C[C@@H]1CCOC[C@H]1n1cc(C(N)=O)c(Nc2ccc(C(F)F)nc2)n1 (single isomer, unassigned) [Example 9-33, 1-[(3S,4R or 3R,4S)-4-cyanotetrahydro-2H-pyran-3-yl]-3-{[6-(difluoromethyl)pyridin-3-yl]amino}-1H-pyrazole-4-carboxamide] | 
33 nM | N#C[C@@H]1CCN(CC2CCC2)C[C@H]1n1cc(C(N)=O)c(Nc2ccc(F)cc2)n1 (racemic) [Example 6-12, 1-[(3S,4R and 3R,4S)-4-cyano-1-(cyclobutylmethyl)piperidin-3-yl]-3-[(4-fluorophenyl)amino]-1H-pyrazole-4-carboxamide] | 
134 nM | N#C[C@H]1CCOC[C@@H]1n1cc(C(N)=O)c(Nc2ccc(Cl)nc2)n1 (single isomer, unassigned) [Example 9-27, 3-[(6-chloropyridin-3-yl)amino]-1-[(3R,4S or 3S,4R)-4-cyanotetrahydro-2H-pyran-3-yl]-1H-pyrazole-4-carboxamide] | 
11 nM | CCn1ccnc1CN1CC[C@@H](C#N)[C@H](n2cc(C(N)=O)c(Nc3ccc(F)cc3)n2)C1 (racemic) [Example 6-19, 1-{(3S,4R and 3R,4S)-4-cyano-1-[(1-ethyl-1H-imidazol-2-yl)methyl]piperidin-3-yl}-3-[(4-fluorophenyl)amino]-1H-pyrazole-4-carboxamide] | 
24 nM | N#C[C@@H]1CS(=O)(=O)CC1n1cc(C(N)=O)c(Nc2ccc(F)cc2)n1 (mixture of isomers) [Example 8-6, 1-((3S,4R and 3R,4S)-4-cyano-1,1-dioxidotetrahydrothiophen-3-yl)-3-((4-fluorophenyl)amino)-1H-pyrazole-4-carboxamide] | 
32 nM | N#C[C@H]1CS(=O)(=O)CC1n1cc(C(N)=O)c(Nc2ccc(F)cc2)n1 (mixture of isomers) [Example 8-5, 1-((3S,4S and 3R,4R)-4-cyano-1,1-dioxidotetrahydrothiophen-3-yl)-3-((4-fluorophenyl)amino)-1H-pyrazole-4-carboxamide] | 
0.2 nM | CN(C)C(=O)c1ccc(Nc2nn([C@H]3COCC[C@@H]3C#N)cc2C(N)=O)cc1 (single isomer, unassigned) [Example 9-34, 1-[(3R,4S or 3S,4R)-4-cyanotetrahydro-2H-pyran-3-yl]-3-{[4-(dimethylcarbamoyl)phenyl]amino}-1H-pyrazole-4-carboxamide] | 
134 nM | N#C[C@H]1CCOC[C@@H]1n1cc(C(N)=O)c(Nc2ccc(C(F)F)nc2)n1 (single isomer, unassigned) [Example 9-32, 1-[(3R,4S or 3S,4R)-4-cyanotetrahydro-2H-pyran-3-yl]-3-{[6-(difluoromethyl)pyridin-3-yl]amino}-1H-pyrazole-4-carboxamide] | 
47 nM | N#C[C@@H]1CN(Cc2ncco2)CC[C@H]1n1cc(C(N)=O)c(Nc2ccc(F)cc2)n1 (racemic) [Example 6-29, 1-[(3R,4R and 3S,4S)-3-cyano-1-(1,3-oxazol-2-ylmethyl)piperidin-4-yl]-3-[(4-fluorophenyl)amino]-1H-pyrazole-4-carboxamide] | 
4 nM | N#C[C@@H]1CCOC[C@H]1n1cc(C(N)=O)c(Nc2ccc(Cl)nc2)n1 (single isomer, unassigned) [Example 9-28, 3-[(6-chloropyridin-3-yl)amino]-1-[(3S,4R or 3R,4S)-4-cyanotetrahydro-2H-pyran-3-yl]-1H-pyrazole-4-carboxamide] | 
